Values quoted from earlier work in US20030116748A1, “Environmentally friendly compositions having anti-icing, deicing or graffiti prevention properties” (priority 1995, published 2003).
Where two headings read alike, the source gives them in different places.

What was measured:
[1] = individual component at full concentration
[2] = for OSHA PEL: 8 hour time-weighted average

## OCCO [Ethylene Glycol]
Arizona, Massachusetts, Maine
  Permissible concentration limits, Water: 5.50 (Arizona, mg/L
Connecticut
  Permissible concentration limits, Water: 0.10 (Connecticut) mg/L
Federal
  Permissible concentration limits, Air: 125 (Federal) mg/m^3
Massachusetts
  Permissible concentration limits, Air: 0.17 mg/m^3
Nevada
  Permissible concentration limits, Air: 2.98 (Nevada) mg/m^3
New Jersey
  Permissible concentration limits, Water: 0.29 (New Jersey) mg/L
North Dakota
  Permissible concentration limits, Air: 1.25 (North mg/m^3
U.S. EPA
  Permissible concentration limits, Water: 0.14 (U.S. EPA) mg/L
Virginia
  Permissible concentration limits, Air: 1.00 (Virginia) mg/m^3

## CC(C)O [Example 2-Propanol, 2-Propanol]
[1]
  Solubility in Water: miscible
[2]
  OSHA PEL: 400 ppm
[2]; value in brackets
  OSHA PEL: 980 mg/m^3
[2]; 10 hour time-weighted average
  NIOSH: 400 ppm
[2]; Short Term Exposure Limit
  NIOSH (STEL): 500 ppm
[2]; time-weighted average
  ACGIH TLV: 400 ppm

## OCC(O)CO [Glycerin, 1,2,3-Propanetriol]
[1]
  Solubility in Water: miscible

## CC(O)CO (centres unmarked) [Propylene Glycol, 1,2-propanediol]
Federal
  Permissible concentration limits, Air: 156 (Federal) mg/m^3
